Values joined by “and” are separate entries in the source; they are usually repeats but may differ in a detail not shown here. Equal entries are not always repeated. Numbered stars: 1 amine (or outer) side, 2 acyl side, 3 side chain; on linkers, the order of the positions; unused ones are H or OH. Square brackets hold non-standard residues; d marks the D form. Peptide text beside a SMILES is read from it. * marks the point of attachment. C18 diacid = O=C(O)CCCCCCCCCCCCCCCCC(=O)*; γGlu = O=C(O)[C@H](CCC(=O)[*:2])N[*:1]; Stearoyl = CCCCCCCCCCCCCCCCCC(=O)*; NMeL = CN[C@@H](CC(C)C)C(=O)O; hSer = N[C@@H](CCO)C(=O)O; Nle = CCCC[C@H](N)C(=O)O; AEEA = NCCOCCOCC(=O)O
What was measured:
hNK2R [1] = molecular target: T1, hNK2R (Homo sapiens, UniProt P21452); assay: Indirect human serum albumin binding by IP3 assay, 0.2% ovalbumin vs 1% HSA; type: cell-based
T1 construct: host or cells: COS-7
T1 sequence (P21452 1-398): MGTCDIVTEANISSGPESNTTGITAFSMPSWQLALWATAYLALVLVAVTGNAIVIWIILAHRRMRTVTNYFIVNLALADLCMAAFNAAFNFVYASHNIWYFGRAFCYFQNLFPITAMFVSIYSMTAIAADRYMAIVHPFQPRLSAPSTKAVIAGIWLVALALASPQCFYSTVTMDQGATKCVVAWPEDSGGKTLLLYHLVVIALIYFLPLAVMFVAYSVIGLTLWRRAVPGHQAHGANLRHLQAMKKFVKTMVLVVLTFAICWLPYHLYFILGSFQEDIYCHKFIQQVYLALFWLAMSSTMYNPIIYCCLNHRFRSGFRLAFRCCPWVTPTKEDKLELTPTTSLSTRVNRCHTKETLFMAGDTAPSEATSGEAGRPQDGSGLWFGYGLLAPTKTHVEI
Description: (§1) Agonist-induced G-protein coupled receptor (GPCR) activation was measured by an Inositol-1,4,5-Trisphosphate [^3H] Radioreceptor Assay (IPs Assay). Assays were carried out using COS-7 cells transiently transfected by calcium phosphate transfection with a vector pcDNA3.1(+) encoding one of the indicated receptors (Genscript). Briefly, DNA mixed with CaCl2 (2 M) and TE-buffer (10 mM Tris-HCl, 1 mM EDTA, pH 7.5) was dropwise added to 2×HBS (50 mM HEPES, 280 mM NaCl, 1.5 mM NaH2PO4, pH 7.2) and incubated for 45 min at room temperature (22±2° C.). The mixture and a final concentration of 100 μM Chloroquine were added to the cells and left to incubate for 5 hours at 37° C. under standard cell culture conditions (10% CO2) before changing medium to fresh medium containing 5 μl/mL Myo-[2-^3H(N)]-inositol (labeling medium).
The indirect HSA binding IP3 assay takes advantage of the tachykinin receptors' ability to induce production of the inositol trisphosphate (IP3) second messenger upon agonist (ligand) binding on receptor expressing cells following an initial ^3H-inositol labeling period. The assay relies on the assumption that high peptide HSA binding will result in low receptor-mediated production of the second messenger IP3. Thus, the assay is an indirect assessment HSA binding.
Assay solutions used: Wash buffer (HBSS), Assay buffer 0.2% OvAlb (HBSS+10 mM LiCl and 0,2% w/v ovalbumin) or Assay buffer 1% HSA (HBSS+10 mM LiCl and 1% w/v HSA), Lysis buffer (10 mM formic acid), and SPA YSI beads (12.5 mg/ml in H2O). The assay was performed the day after transfection. Briefly, labelling medium was aspirated, and plates were washed ×1 in wash buffer before adding 100 μl assay buffer 0.2% OvAlb or assay buffer 1% HSA, pre-incubated for 30 min followed by 120 min incubation with agonist, both at 37° C. After incubation, plates were immediately placed on ice and the incubation medium was aspirated and 40 μl of 10 mM formic acid per well was added. Plates were incubated for at least 30 min on ice. 60 μl (1 mg/well) SPA YSI beads/well was pipetted into a solid white 96 wells plate and 35 μl of the lysis solution was transferred to the plate before covering plates with seal cover and shaking for 10 min. (max speed). Centrifuge plates and leave for 8 hours at room temperature before counting the plates in a MicroBeta plate counter (Perkin Elmer).

hNK1R = molecular target: T2, hNK1R (Homo sapiens, UniProt P25103); assay: IP3 assay (inositol trisphosphate, 3H-myoinositol) in transiently transfected COS-7 cells; type: cell-based; conditions: COS-7 cells; for EC50: 0.2% ovalbumin buffer; for hNK1R, IP3 Efficacy: figure legends: percent of 10^-6 M NKA
T2 construct: host or cells: COS-7
In short: (§2)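 COS-7 cells were transiently transfected with receptor plasmid and labelled with ³H-myo-inositol. Cells were lysed in formic acid, and ³H-inositol phosphates were captured on SPA YSI beads and counted.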

hNK2R [2] = molecular target: T1, hNK2R; assay: as above; type: cell-based; conditions: COS-7 cells; for EC50: 0.2% ovalbumin buffer; for hNK2R, IP3 Efficacy: figure legends: percent of 10^-6 M NKA
In short: as §2

hNK3R = molecular target: T3, hNK3R (Homo sapiens, UniProt P29371); assay: as above; type: cell-based; conditions: COS-7 cells; for EC50: 0.2% ovalbumin buffer, read-out: hNK3, IP3 EC50; for hNK3, IP3 Efficacy: figure legends: percent of 10^-6 M NKA
T3 construct: host or cells: COS-7
T3 sequence (P29371 1-465): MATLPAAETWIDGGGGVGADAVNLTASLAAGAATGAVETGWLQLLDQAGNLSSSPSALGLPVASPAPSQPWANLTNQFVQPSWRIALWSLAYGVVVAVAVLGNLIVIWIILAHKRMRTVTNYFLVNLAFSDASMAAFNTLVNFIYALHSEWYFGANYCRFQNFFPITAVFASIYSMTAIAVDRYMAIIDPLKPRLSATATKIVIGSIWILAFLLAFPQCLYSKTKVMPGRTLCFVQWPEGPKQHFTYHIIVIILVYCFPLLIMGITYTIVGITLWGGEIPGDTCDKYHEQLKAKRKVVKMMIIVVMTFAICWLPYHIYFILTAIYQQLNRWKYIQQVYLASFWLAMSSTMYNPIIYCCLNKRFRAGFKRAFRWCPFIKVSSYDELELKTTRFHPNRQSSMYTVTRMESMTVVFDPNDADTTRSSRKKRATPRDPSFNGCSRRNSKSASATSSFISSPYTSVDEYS
In short: as §2

in vivo = assay: in vivo; parameters: species or system mice; conditions: mouse, sc, 0.5 mg/kg, Half-life
Description: Pharmacokinetics: To evaluate the in vivo half-life of individual peptide analogues we used wild type lean mice at around 10 weeks of age injected once with a peptide analogue. For each sample time point 3-4 mice were used and blood was drawn from the submandibular vein at indicated time points following injection. Prior to injection mice were given ad libitum access to standard chow diet. Mice were subcutaneously injected with 0.5 mg/kg peptide analogue in a volume of 2 ml/kg. The amount of peptide analogue and metabolite(s) present in blood samples were measured by TF-LC-MS and MetID-LC-MS, respectively. Sample preparation: One volume of plasma is precipitated with three volumes of ethanol (with internal standard). The mixture is centrifuged at 13000 g for 20 min. One volume of supernatant is diluted with two volumes of Milli-Q water (1% formic acid). Calibration curve: peptide analogue was spiked into blank mouse plasma. Range: 0.5 to 2000 nM (linear 1/x2).

hNK2R [3] = molecular target: T1, hNK2R; assay: 3H-NKA competitive binding on transfected COS-7 cells; conditions: competition with 3H-NKA, 4 h at 4 C
Description: as §1, with “Assays” for “Agonist-induced G-protein coupled receptor (GPCR) activation was measured by an Inositol-1,4,5-Trisphosphate [^3H] Radioreceptor Assay (IPs Assay). Assays”, “maintenance medium.” for “medium containing 5 μl/mL Myo-[2-^3H(N)]-inositol (labeling medium).”
The ^3H-NKA binding assay measures peptide-receptor binding by a competitive principle of receptor binding between radioactively labelled (3H) NKA (tracer) and synthesized peptide ligands on live cells expressing the receptor of interest. Assay solutions used: TKR buffer (50 mM Tris/HCl pH 7.5, 5 mM MnCl2, and 150 mM NaCl), wash buffer (TKR buffer+0.2% w/v OvAlb), binding buffer (wash buffer+0.1 mg/ml Bacitracin), and tracer solution (binding buffer+˜15000 cpm/well ^3H-tracer). The assay was performed on ice the day after transfection.
Briefly, maintenance medium was aspirated, and plates were washed ×1 in cold wash buffer before adding 100 μl cold binding buffer and placing at 4° C. to let plates cool. The cold plates were added indicated peptides (ligand) immediately followed by addition of cold tracer solution (˜15000 cpm/well). Plates were immediately moved to 4° C. and incubated for 4 hours. After incubation, binding was stopped by wash ×2 with cold wash buffer before adding 225 μl Ultima Gold XR. Plates were shaken at medium speed for approximately 30 min and left overnight at room temperature before counting the plates in a MicroBeta plate counter (Perkin Elmer).

hNK2R [4] = molecular target: T1, hNK2R; assay: Hithunter cAMP assay (Gs-coupling) in transfected COS-7 cells; type: cell-based
Description: as §1, with “As a secondary measure of agonist-induced” for “Agonist-induced”, “activation cyclin adenosine monophosphate (cAMP)” for “activation”, “the Hithunter cAMP-assay from DiscoverX.” for “an Inositol-1,4,5-Trisphosphate [^3H] Radioreceptor Assay (IPs Assay).”, “maintenance medium.” for “medium containing 5 μl/mL Myo-[2-^3H(N)]-inositol (labeling medium).”
The cAMP-assay takes advantage of the tachykinin receptors' ability to induce production of the cAMP second messenger upon agonist (ligand) binding on receptor expressing cells. Production of cAMP stems from receptor coupling to Gs-protein although coupling to Gq-protein (IP3-production) is considered the primary signalling mechanism by tachykinin receptors.
The assay was performed the day after transfection. Briefly, maintenance medium was aspirated, and plates were washed ×1 in HBSS before adding assay buffer (HBSS+1 mM IBMX), pre-incubated for 30 min at 37° C. followed by 15 min incubation with agonist (ligand) at 37° C. After incubation, plates were subjected to cell lysis and anti-cAMP-antibody incubation as described by manufacturer. Luminescence was measured with EnVision Multimode Plate Reader from Perkin Elmer.

[5] = 0.2% ovalbumin, read-out: hNK2R, Albumin binding EC50 (nM)-ovalbumin
[6] = 1% HSA, read-out: hNK2R, Albumin binding EC50 (nM)-1% human serum albumin

T2 sequence (P25103 whole entry): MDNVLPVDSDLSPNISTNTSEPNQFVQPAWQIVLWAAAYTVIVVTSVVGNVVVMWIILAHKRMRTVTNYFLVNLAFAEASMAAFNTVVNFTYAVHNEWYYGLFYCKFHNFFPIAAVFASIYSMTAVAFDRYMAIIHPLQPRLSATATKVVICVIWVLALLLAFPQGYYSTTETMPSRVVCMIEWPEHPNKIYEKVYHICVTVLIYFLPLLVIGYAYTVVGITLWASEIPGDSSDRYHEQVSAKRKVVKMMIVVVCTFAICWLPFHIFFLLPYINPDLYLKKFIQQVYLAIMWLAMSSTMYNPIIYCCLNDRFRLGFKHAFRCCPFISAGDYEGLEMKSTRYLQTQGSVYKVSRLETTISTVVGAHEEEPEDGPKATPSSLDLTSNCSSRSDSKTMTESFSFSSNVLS

SMILES | hNK2R, Albumin binding Efficacy (%)-ovalbumin (hNK2R [1]; 0.2% ovalbumin) | EC50 (hNK2R [1]; [5]) | hNK2R, Albumin binding Efficacy (%)-1% human serum albumin (hNK2R [1]; 1% HSA) | EC50 (hNK2R [1]; [6]) | EC50 (hNK1R) | hNK1R, IP3 Efficacy (hNK1R) | EC50 (hNK2R [2]) | hNK2R, IP3 Efficacy (hNK2R [2]) | EC50 (hNK3R) | hNK3, IP3 Efficacy (hNK3R) | half-life (in vivo) | EC50 (hNK2R [3]) | EC50 (hNK2R [4]; COS-7 cells) | hNK2R, cAMP Efficacy (hNK2R [4]; COS-7 cells) | Gs activation (cAMP), in words (hNK2R [4])
CCCCCCCCCCCCCCCCCC(=O)N[C@@H](CCC(=O)NCCOCCOCC(=O)NCCOCCOCC(=O)N[C@@H](CC(=O)O)C(=O)N[C@@H](CCCCN)C(=O)N[C@@H](Cc1ccc(O)cc1)C(=O)N[C@H](C(=O)NCC(=O)N(C)[C@@H](CC(C)C)C(=O)N[C@@H](CCCC)C(N)=O)C(C)C)C(=O)O [compound 390, *Asp;Lys;Tyr;Val;Gly;NmLeu;Nle;NH2] ({Stearoyl-γGlu-AEEA-AEEA}-DKYVG[NMeL][Nle]-NH2) | 100% | 1 nM | 90% | 0.7 nM | 3.9 nM | 88% | 1 nM | 100% | 14 nM | 100% | 1.7 h |  |  |  | 
COCC[C@H](NC(=O)[C@H](CC(C)C)N(C)C(=O)CNC(=O)[C@@H](NC(=O)[C@H](Cc1ccc(O)cc1)NC(=O)[C@H](CCCCN)NC(=O)[C@H](CC(=O)O)NC(=O)COCCOCCNC(=O)COCCOCCNC(=O)CC[C@H](NC(=O)CCCCCCCCCCCCCCCCC(=O)O)C(=O)O)[C@@H](C)O)C(N)=O [compound 366, *Asp;Lys;Tyr;Thr;Gly;NmLeu;Metox;NH2] ({C18 diacid-γGlu-AEEA-AEEA}-DKYTG[NMeL][hSer](Me)-NH2) |  |  |  |  |  | 0% | 12 nM | 100% |  | 0% |  | ~104 nM | ~120 nM | 80% | 
CCCCCCCCCCCCCCCCCC(=O)N[C@@H](CCC(=O)NCCOCCOCC(=O)NCCOCCOCC(=O)N[C@@H](CC(=O)O)C(=O)N[C@@H](CCCCN)C(=O)N[C@@H](Cc1ccc(O)cc1)C(=O)N[C@H](C(=O)NCC(=O)N(C)[C@@H](CC(C)C)C(=O)N[C@@H](CCOC)C(N)=O)C(C)C)C(=O)O [compound 391, *Asp;Lys;Tyr;Val;Gly;NmLeu;Metox;NH2] ({Stearoyl-γGlu-AEEA-AEEA}-DKYVG[NMeL][hSer](Me)-NH2) | 100% | 0.9 nM | 90% | 0.6 nM | 3.4 nM | 100% | 0.9 nM | 90% | 4 nM | 100% |  |  |  |  | 
CCCC[C@H](NC(=O)[C@H](CC(C)C)N(C)C(=O)CNC(=O)[C@@H](NC(=O)[C@H](Cc1ccc(O)cc1)NC(=O)[C@H](CCCCN)NC(=O)[C@H](CCC(=O)O)NC(=O)COCCOCCNC(=O)COCCOCCNC(=O)CC[C@H](NC(=O)CCCCCCCCCCCCCCCCC(=O)O)C(=O)O)C(C)C)C(N)=O [compound 336, *Glu;Lys;Tyr;Val;Gly;NmLeu;Nle;NH2] ({C18 diacid-γGlu-AEEA-AEEA}-EKYVG[NMeL][Nle]-NH2) |  |  |  |  | ~26000 nM and ~27000 nM | 30% and 25% | 4 nM | 80% and 75% | ~3800 nM | 10% and 0% |  | 80 nM |  | 0% | does not activate Gs
